# From paper PMC6533482, “Xanthatin inhibits STAT3 and NF‐κB signalling by covalently binding to JAK and IKK kinases” (Journal of Cellular and Molecular Medicine, 2019)
# Tests used:
# JAK1 [1] = biological target: T1, JAK1 (Homo sapiens, UniProt P23458); assay: click-chemistry pull-down from treated cells, competed by xanthatin; assay type: cell-based
# T1 construct: endogenous, MDA-MB-231 cells
# IKKα [2] = biological target: T2, IKKα (Homo sapiens, UniProt O15111); assay: as above; assay type: cell-based
# T2 construct: gene CHUK; endogenous, MDA-MB-231 cells
# T2 sequence (O15111 1-745): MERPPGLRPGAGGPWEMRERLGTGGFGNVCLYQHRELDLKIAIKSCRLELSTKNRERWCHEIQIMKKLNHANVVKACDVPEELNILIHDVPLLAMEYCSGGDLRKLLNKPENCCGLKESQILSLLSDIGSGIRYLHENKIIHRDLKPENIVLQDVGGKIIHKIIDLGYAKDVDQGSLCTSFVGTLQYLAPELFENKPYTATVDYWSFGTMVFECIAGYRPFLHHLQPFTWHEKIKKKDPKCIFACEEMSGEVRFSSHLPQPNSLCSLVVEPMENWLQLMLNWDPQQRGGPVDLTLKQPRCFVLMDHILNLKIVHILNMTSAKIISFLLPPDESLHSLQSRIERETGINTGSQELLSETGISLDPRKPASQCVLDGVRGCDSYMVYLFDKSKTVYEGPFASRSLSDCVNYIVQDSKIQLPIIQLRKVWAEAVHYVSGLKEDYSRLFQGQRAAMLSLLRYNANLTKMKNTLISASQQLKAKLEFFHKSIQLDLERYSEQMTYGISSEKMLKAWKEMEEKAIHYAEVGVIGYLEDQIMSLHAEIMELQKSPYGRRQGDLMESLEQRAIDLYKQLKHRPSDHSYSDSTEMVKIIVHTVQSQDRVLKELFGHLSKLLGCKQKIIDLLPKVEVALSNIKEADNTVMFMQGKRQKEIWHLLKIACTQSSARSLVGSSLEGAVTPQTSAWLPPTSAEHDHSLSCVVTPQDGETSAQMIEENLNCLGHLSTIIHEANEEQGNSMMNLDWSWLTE
# Tyk2 [3] = biological target: T3, Tyk2 (Homo sapiens, UniProt P29597); assay: as above; assay type: cell-based
# T3 construct: endogenous, MDA-MB-231 cells
# T3 sequence (P29597 whole entry): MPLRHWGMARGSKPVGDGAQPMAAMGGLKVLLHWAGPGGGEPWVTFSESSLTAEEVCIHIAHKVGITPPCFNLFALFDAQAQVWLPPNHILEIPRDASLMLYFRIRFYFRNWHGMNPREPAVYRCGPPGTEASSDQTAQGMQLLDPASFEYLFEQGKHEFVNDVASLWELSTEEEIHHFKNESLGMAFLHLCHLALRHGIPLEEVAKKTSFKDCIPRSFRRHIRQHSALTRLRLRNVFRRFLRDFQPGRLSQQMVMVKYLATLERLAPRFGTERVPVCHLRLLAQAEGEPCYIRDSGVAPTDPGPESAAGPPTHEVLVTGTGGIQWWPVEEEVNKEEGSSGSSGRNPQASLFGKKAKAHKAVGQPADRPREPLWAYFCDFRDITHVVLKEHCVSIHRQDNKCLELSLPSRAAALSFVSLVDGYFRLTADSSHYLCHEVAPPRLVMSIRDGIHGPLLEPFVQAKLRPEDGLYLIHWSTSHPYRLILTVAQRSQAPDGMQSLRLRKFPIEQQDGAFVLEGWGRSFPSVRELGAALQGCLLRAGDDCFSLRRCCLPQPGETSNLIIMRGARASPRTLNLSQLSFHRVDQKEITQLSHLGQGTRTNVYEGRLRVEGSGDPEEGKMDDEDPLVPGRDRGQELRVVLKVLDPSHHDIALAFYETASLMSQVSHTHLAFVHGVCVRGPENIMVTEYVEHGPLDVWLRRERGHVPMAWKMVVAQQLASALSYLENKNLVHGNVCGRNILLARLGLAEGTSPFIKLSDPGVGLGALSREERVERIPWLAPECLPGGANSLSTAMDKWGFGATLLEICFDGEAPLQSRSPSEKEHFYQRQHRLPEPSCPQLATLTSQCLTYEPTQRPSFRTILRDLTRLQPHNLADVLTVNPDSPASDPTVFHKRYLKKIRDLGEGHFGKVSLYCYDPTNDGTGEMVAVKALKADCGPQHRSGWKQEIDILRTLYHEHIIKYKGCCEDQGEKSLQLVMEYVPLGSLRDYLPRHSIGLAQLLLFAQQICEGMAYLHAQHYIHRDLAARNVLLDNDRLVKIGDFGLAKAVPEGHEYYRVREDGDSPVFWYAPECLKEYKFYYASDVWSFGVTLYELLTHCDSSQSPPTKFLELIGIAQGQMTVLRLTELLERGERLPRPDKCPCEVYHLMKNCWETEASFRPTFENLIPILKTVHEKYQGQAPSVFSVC
# IKKβ [4] = biological target: T4, IKKβ (Homo sapiens, UniProt O14920); assay: in-gel fluorescence after click labelling of immunoprecipitated protein; assay type: binding
# T4 construct: gene IKBKB; IKKβ-FLAG immunoprecipitated from HEK293 cells
# T4 sequence (O14920 1-756): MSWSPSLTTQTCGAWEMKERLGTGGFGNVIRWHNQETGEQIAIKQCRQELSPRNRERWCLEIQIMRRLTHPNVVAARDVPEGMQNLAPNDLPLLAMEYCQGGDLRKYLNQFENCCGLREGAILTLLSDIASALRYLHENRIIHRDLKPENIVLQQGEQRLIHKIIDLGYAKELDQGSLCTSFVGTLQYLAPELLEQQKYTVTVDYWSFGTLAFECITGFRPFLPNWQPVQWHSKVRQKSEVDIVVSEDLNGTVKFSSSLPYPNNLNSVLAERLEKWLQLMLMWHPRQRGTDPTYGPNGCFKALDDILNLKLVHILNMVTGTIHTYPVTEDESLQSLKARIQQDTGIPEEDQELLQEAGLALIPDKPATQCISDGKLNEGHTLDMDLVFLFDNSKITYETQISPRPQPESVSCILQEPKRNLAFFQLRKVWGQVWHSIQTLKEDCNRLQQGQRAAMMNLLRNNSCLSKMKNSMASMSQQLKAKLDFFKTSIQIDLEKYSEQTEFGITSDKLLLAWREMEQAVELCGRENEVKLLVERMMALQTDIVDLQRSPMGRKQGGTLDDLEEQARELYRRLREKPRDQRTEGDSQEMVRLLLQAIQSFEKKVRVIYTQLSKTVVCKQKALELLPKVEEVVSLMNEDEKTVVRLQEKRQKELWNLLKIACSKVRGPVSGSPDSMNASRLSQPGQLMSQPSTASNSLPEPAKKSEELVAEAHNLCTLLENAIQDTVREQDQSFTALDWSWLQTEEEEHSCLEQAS
# JAK2 [5] = biological target: T5, JAK2 (Homo sapiens, UniProt O60674); assay: as above; assay type: binding
# T5 construct: JAK2-FLAG immunoprecipitated from HEK293 cells
# T5 sequence (O60674 whole entry): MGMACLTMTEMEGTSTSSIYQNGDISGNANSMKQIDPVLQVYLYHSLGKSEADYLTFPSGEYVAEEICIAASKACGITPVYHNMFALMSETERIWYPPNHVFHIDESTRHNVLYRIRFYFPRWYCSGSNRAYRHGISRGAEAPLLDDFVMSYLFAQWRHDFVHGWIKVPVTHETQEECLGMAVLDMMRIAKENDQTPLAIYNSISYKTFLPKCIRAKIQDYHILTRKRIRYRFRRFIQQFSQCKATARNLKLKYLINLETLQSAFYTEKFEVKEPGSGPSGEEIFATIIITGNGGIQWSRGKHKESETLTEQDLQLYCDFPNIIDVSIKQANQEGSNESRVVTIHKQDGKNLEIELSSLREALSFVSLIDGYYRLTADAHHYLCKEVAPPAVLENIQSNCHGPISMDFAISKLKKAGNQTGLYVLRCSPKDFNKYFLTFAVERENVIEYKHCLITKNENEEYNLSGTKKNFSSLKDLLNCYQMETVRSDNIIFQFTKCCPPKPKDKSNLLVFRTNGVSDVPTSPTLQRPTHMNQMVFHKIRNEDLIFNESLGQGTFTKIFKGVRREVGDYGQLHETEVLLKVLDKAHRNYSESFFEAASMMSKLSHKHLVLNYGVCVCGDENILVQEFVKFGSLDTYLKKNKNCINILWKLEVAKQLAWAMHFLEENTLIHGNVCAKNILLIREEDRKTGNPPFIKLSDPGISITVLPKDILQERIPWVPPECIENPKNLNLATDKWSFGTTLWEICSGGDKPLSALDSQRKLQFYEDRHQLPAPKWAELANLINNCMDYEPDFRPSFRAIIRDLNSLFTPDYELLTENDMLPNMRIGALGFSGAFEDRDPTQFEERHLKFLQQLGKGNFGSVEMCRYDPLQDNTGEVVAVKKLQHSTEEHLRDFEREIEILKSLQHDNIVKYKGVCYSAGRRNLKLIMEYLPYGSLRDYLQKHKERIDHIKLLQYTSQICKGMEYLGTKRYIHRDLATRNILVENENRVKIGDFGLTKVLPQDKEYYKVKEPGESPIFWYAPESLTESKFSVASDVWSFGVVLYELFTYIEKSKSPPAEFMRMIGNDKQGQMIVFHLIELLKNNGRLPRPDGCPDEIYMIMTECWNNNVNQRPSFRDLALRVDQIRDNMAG
# IKKβ [6] = biological target: T4, IKKβ; assay: in vitro kinase assay with immunoprecipitated IKKβ; adducts confirmed by LC-MS/MS; assay type: biochemical
# IKKα [7] = biological target: T2, IKKα; assay: competition of Alk-Xa pull-down in cells; assay type: cell-based
# Tyk2 [8] = biological target: T3, Tyk2; assay: competition of Alk-Xa pull-down in cells; assay type: cell-based
# JAK2 [9] = biological target: T5, JAK2; assay: in vitro kinase assay with immunoprecipitated JAK2; adduct confirmed by LC-MS/MS; assay type: biochemical
# JAK1 [10] = biological target: T1, JAK1; assay: competition of Alk-Xa pull-down in cells; assay type: cell-based
# T1 sequence (P23458 whole entry): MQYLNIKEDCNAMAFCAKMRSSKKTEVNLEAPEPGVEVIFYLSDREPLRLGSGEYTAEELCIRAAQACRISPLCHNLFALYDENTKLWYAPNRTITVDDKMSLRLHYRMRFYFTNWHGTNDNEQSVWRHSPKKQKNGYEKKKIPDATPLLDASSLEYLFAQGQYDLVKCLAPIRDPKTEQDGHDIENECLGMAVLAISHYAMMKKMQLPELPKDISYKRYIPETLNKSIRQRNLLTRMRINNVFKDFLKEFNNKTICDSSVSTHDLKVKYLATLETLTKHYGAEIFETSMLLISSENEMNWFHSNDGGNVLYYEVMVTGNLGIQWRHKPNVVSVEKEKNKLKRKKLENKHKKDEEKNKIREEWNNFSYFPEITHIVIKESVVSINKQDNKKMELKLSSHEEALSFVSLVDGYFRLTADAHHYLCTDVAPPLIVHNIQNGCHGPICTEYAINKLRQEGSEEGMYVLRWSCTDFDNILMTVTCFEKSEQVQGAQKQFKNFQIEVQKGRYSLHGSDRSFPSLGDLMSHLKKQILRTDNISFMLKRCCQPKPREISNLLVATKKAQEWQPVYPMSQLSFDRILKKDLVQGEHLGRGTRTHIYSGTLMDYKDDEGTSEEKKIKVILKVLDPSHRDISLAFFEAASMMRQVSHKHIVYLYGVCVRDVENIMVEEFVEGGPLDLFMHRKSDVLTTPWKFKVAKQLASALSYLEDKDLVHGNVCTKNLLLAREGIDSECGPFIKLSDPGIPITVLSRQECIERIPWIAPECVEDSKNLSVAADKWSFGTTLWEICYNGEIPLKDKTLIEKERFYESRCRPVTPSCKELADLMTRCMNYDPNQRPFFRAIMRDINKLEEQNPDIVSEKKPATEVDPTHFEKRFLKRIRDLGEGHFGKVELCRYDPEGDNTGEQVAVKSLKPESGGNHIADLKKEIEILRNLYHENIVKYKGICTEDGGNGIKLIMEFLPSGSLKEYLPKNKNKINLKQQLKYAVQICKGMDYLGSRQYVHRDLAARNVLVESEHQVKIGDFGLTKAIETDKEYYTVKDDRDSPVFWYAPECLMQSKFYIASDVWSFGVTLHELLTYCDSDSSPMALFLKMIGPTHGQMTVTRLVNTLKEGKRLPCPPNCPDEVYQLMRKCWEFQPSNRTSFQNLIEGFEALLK
IC50 (IKKβ [6]) [µM],IC50 (JAK2 [9]) [µM],Compound,"click-chemistry pull-down from treated cells, competed by xanthatin (JAK1 [1])","click-chemistry pull-down from treated cells, competed by xanthatin (IKKα [2])","click-chemistry pull-down from treated cells, competed by xanthatin (Tyk2 [3])",in-gel fluorescence after click labelling of immunoprecipitated protein (IKKβ [4]),in-gel fluorescence after click labelling of immunoprecipitated protein (JAK2 [5]),competition of Alk-Xa pull-down in cells (IKKα [7]),competition of Alk-Xa pull-down in cells (Tyk2 [8]),competition of Alk-Xa pull-down in cells (JAK1 [10])
,,"C#CCNC(=O)/C=C/C1=CC[C@@H]2C(=C)C(=O)O[C@H]2C[C@@H]1C [Alk-Xa, Alk‐Xa]","JAK1, JAK2, Tyk2, IKKα and IKKβ were pulled down with the Alk‐Xa","JAK1, JAK2, Tyk2, IKKα and IKKβ were pulled down with the Alk‐Xa","JAK1, JAK2, Tyk2, IKKα and IKKβ were pulled down with the Alk‐Xa","fluorescence intensity of JAK2 and IKKβ was proportional to the dosage of Alk‐Xa, indicating that Alk‐Xa covalently bound","fluorescence intensity of JAK2 and IKKβ was proportional to the dosage of Alk‐Xa, indicating that Alk‐Xa covalently bound",,,
11.3,4.08,"C=C1C(=O)O[C@H]2C[C@H](C)C(/C=C/C(C)=O)=CC[C@H]12 [Xa, xanthatin]",,,,,,the interactions could be competed away by excessive unlabelled xanthatin,the interactions could be competed away by excessive unlabelled xanthatin,the interactions could be competed away by excessive unlabelled xanthatin
